Experimental data: PubChem BioAssay (NCI)
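Compound exposure: 48 hours, 5 concentrations, 96-well plates. GI50 is the concentration that inhibits growth by half. Definition used: TGI = concentration required for complete inhibition of growth.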

How the values were obtained:
Assay in all cases: NCI anticancer screen, dose series, 48 h; in the data active = GI50 below about 0.43 µM; inactive = the rest
CAKI-1 renal = system: CAKI-1 renal
COLO 205 colon = system: COLO 205 colon
DMS 273 small cell lung = system: DMS 273 small cell lung
HCT-15 colon = system: HCT-15 colon
HT29 colon = system: HT29 colon
M19-MEL melanoma = system: M19-MEL melanoma
RPMI-8226 leukemia = system: RPMI-8226 leukemia
SW-620 colon = system: SW-620 colon
TK-10 renal = system: TK-10 renal
HS 578T breast = system: HS 578T breast

c1cc[c]([Ge]([O]c2cccc3cccnc23)([c]2ccccc2)[c]2ccccc2)cc1
14.9 µM: TGI (COLO 205 colon)
10.8 µM: TGI (HT29 colon)
12.1 µM: TGI (M19-MEL melanoma)
12.4 µM: TGI (DMS 273 small cell lung) | TGI (HCT-15 colon)
6.77 µM: TGI (RPMI-8226 leukemia)
inactive: GI50 (CAKI-1 renal) 10.8 µM | GI50 (COLO 205 colon) 4.8 µM | GI50 (DMS 273 small cell lung) 3.46 µM | GI50 (HCT-15 colon) 3.56 µM | GI50 (HT29 colon) 3.8 µM | GI50 (M19-MEL melanoma) 3.46 µM | GI50 (RPMI-8226 leukemia) 2.29 µM | GI50 (SW-620 colon) 3.02 µM | GI50 (TK-10 renal) 7.36 µM
28.9 µM: TGI (CAKI-1 renal)
20.3 µM: TGI (TK-10 renal)
7.46 µM: TGI (SW-620 colon)

Cc1nc2ccccc2c(=O)n1/N=C(\N=Nc1ccccc1)c1ccccc1Cl
> 100 µM: TGI (COLO 205 colon) | TGI (DMS 273 small cell lung) | TGI (HCT-15 colon) | TGI (HT29 colon) | TGI (M19-MEL melanoma) | TGI (RPMI-8226 leukemia) | TGI (SW-620 colon)
81.4 µM: TGI (CAKI-1 renal)
> 86.4 µM: TGI (TK-10 renal)

O/N=C1/CCCC/C1=C\c1ccc(Cl)c(Cl)c1
> 100 µM: TGI (HCT-15 colon) | TGI (M19-MEL melanoma) | TGI (SW-620 colon) | TGI (TK-10 renal)
63.1 µM: TGI (DMS 273 small cell lung)
39.9 µM: TGI (HT29 colon)
99.7 µM: TGI (CAKI-1 renal)
38.9 µM: TGI (COLO 205 colon)

O=CCCn1[nH]c(=O)ccc1=O
> 100 µM: TGI (CAKI-1 renal) | TGI (DMS 273 small cell lung) | TGI (HCT-15 colon) | TGI (HT29 colon) | TGI (M19-MEL melanoma) | TGI (RPMI-8226 leukemia) | TGI (SW-620 colon) | TGI (TK-10 renal)

O=C1CCCc2ccc([N+](=O)[O-])c(O)c21
> 100 µM: TGI (CAKI-1 renal) | TGI (COLO 205 colon) | TGI (DMS 273 small cell lung) | TGI (HCT-15 colon) | TGI (HT29 colon) | TGI (M19-MEL melanoma) | TGI (SW-620 colon) | TGI (TK-10 renal)

NC1=NN(c2ccccc2)C(=O)C1C(=O)C(=O)Nc1ccccc1 (stereo unspecified)
> 100 µM: TGI (CAKI-1 renal) | TGI (COLO 205 colon) | TGI (DMS 273 small cell lung) | TGI (HCT-15 colon) | TGI (HT29 colon) | TGI (M19-MEL melanoma) | TGI (RPMI-8226 leukemia) | TGI (SW-620 colon) | TGI (TK-10 renal)

COc1ccc(C2(Cl)C(Cl)(C(F)(F)F)C2(Cl)C(F)(F)F)cc1 (stereo unspecified)
34.8 µM: TGI (RPMI-8226 leukemia)
29.3 µM: TGI (COLO 205 colon)
26.5 µM: TGI (M19-MEL melanoma)
27.8 µM: TGI (HT29 colon)
33.1 µM: TGI (SW-620 colon)
29.5 µM: TGI (CAKI-1 renal)
29.6 µM: TGI (HCT-15 colon)
32 µM: TGI (TK-10 renal)
27.4 µM: TGI (DMS 273 small cell lung)

C=C(C)CC(C(=O)O)c1ccc(C)cc1 (stereo unspecified)
> 100 µM: TGI (CAKI-1 renal) | TGI (COLO 205 colon) | TGI (DMS 273 small cell lung) | TGI (HCT-15 colon) | TGI (HT29 colon) | TGI (M19-MEL melanoma) | TGI (RPMI-8226 leukemia) | TGI (SW-620 colon) | TGI (TK-10 renal)

C[C@]12Cc3conc3C(O)=C1CC[C@@H]1C2CC[C@@]2(C)C1CC[C@@H]2O (stereo partly specified)
74.5 µM: TGI (M19-MEL melanoma)
25.2 µM: TGI (DMS 273 small cell lung)
> 100 µM: TGI (CAKI-1 renal) | TGI (HCT-15 colon) | TGI (HT29 colon) | TGI (SW-620 colon) | TGI (TK-10 renal)
20.4 µM: TGI (RPMI-8226 leukemia)
99.4 µM: TGI (COLO 205 colon)

Cn1cnc([N+](=O)[O-])c1Sc1n[nH]c(-c2ccc(Cl)cc2)n1
43.8 µM: TGI (TK-10 renal)
42.5 µM: TGI (HT29 colon)
30.9 µM: TGI (COLO 205 colon)
37.3 µM: TGI (DMS 273 small cell lung)
78.8 µM: TGI (CAKI-1 renal)
87.7 µM: TGI (RPMI-8226 leukemia)
47.7 µM: TGI (M19-MEL melanoma)
78 µM: TGI (SW-620 colon)

CC(=O)N1c2ccccc2N(C(C)=O)C1c1ccc(C2N(C(C)=O)c3ccccc3N2C(C)=O)[nH]1
> 100 µM: TGI (CAKI-1 renal) | TGI (COLO 205 colon) | TGI (DMS 273 small cell lung) | TGI (HCT-15 colon) | TGI (HT29 colon) | TGI (M19-MEL melanoma) | TGI (RPMI-8226 leukemia) | TGI (SW-620 colon) | TGI (TK-10 renal)

CC1(C)C(=O)/C=C\C(=O)C(C)(C)C2=CC=C(O2)C(C)(C)C(=O)C(Br)C(Br)C(=O)C(C)(C)C2=CC=C1O2 (stereo unspecified)
> 100 µM: TGI (CAKI-1 renal) | TGI (COLO 205 colon) | TGI (DMS 273 small cell lung) | TGI (HCT-15 colon) | TGI (HS 578T breast) | TGI (HT29 colon) | TGI (M19-MEL melanoma) | TGI (TK-10 renal)
9.56 µM: TGI (RPMI-8226 leukemia)
31.1 µM: TGI (SW-620 colon)

C=CC12CCCCC1CC(C(=O)OC)=C(O)C2 (stereo unspecified)
> 100 µM: TGI (CAKI-1 renal) | TGI (COLO 205 colon) | TGI (DMS 273 small cell lung) | TGI (HT29 colon) | TGI (M19-MEL melanoma) | TGI (RPMI-8226 leukemia) | TGI (SW-620 colon) | TGI (TK-10 renal)

O=CN/C=C/c1ccccc1
> 100 µM: TGI (CAKI-1 renal) | TGI (COLO 205 colon) | TGI (DMS 273 small cell lung) | TGI (HCT-15 colon) | TGI (HT29 colon) | TGI (M19-MEL melanoma) | TGI (RPMI-8226 leukemia) | TGI (TK-10 renal)
> 85.6 µM: TGI (SW-620 colon)

CCOC(=O)C1CC(=O)C=C2CCCCC21 (stereo unspecified)
> 100 µM: TGI (CAKI-1 renal) | TGI (COLO 205 colon) | TGI (DMS 273 small cell lung) | TGI (HCT-15 colon) | TGI (HT29 colon) | TGI (M19-MEL melanoma) | TGI (RPMI-8226 leukemia) | TGI (SW-620 colon) | TGI (TK-10 renal)

C=CCCn1nc(-c2ccccc2)oc1=O
> 100 µM: TGI (CAKI-1 renal) | TGI (COLO 205 colon) | TGI (DMS 273 small cell lung) | TGI (HCT-15 colon) | TGI (HT29 colon) | TGI (M19-MEL melanoma) | TGI (SW-620 colon) | TGI (TK-10 renal)

C[C@@H]1CC[C@@]2(C)OC(c3ccccc3)[C@H](CO)N2C1=O (stereo partly specified)
> 100 µM: TGI (CAKI-1 renal) | TGI (COLO 205 colon) | TGI (DMS 273 small cell lung) | TGI (HCT-15 colon) | TGI (HT29 colon) | TGI (M19-MEL melanoma) | TGI (RPMI-8226 leukemia) | TGI (SW-620 colon) | TGI (TK-10 renal)

N#CC(Sc1ccccc1)C(N)=O (stereo unspecified)
> 100 µM: TGI (CAKI-1 renal) | TGI (COLO 205 colon) | TGI (DMS 273 small cell lung) | TGI (HCT-15 colon) | TGI (HT29 colon) | TGI (M19-MEL melanoma) | TGI (RPMI-8226 leukemia) | TGI (SW-620 colon) | TGI (TK-10 renal)
